{
  "source": "ChEMBL document CHEMBL6121000",
  "about": "“Corosolic acid and its derivatives targeting MCCC1 against insulin resistance and their hypoglycemic effect on type 2 diabetic mice” (Eur J Med Chem, 2025)",
  "key": {"[1]": {"assay": "Clearance in Sprague-Dawley rat at 20 mg/kg, po measured for 24 hrs by HPLC-ESI-MS analysis", "assay_type": "ADME, organism-based", "details": "in vivo"}, "[2]": {"system": "HepG2", "assay": "Inhibition of insulin resistance in human HepG2 cells assessed as decrease in GlcN-induced glucose production at 20 uM preincubated for 1 hr followed by GlcN treatment for 18 hrs and subsequent insulin stimulation for 20 mins", "assay_type": "functional, cell-based", "details": "time 19.33 hrs"}, "[3]": {"system": "Mus musculus", "assay": "Hypoglycemic activity in HFD-fed STZ-induced diabetic C57BL/6J mouse model assessed as decrease in blood glucose level at 20 mg/kg, po administered everyday for 3 weeks", "assay_type": "functional, organism-based"}, "[4]": {"system": "Mus musculus", "assay": "Hypoglycemic activity in HFD-fed STZ-induced diabetic C57BL/6J mouse model assessed as improvement in triglyceride level in liver at 20 mg/kg, po administered everyday for 3 weeks", "assay_type": "functional, organism-based"}, "[5]": {"system": "Mus musculus", "assay": "Improvement in hepatic total cholesterol level of HFD-fed STZ-induced diabetic C57BL/6J mouse model at 20 mg/kg, po administered everyday for 3 weeks", "assay_type": "functional, organism-based"}, "[6]": {"assay": "Oral bioavailability in Sprague-Dawley rat at 20 mg/kg measured for 24 hrs by HPLC-ESI-MS analysis", "assay_type": "ADME, organism-based", "details": "in vivo"}, "[7]": {"assay": "AUC (0 to t) in Sprague-Dawley rat at 20 mg/kg, po measured for 24 hrs by HPLC-ESI-MS analysis", "assay_type": "ADME, organism-based", "details": "in vivo"}, "[8]": {"assay": "Solubility of compound in PBS", "assay_type": "physicochemical"}, "[9]": {"assay": "Toxicity in Sprague-Dawley rat assessed as inflammatory cell infiltration in colon tissue at 20 mg/kg, po for 5 days", "assay_type": "organism-based", "details": "in vivo, 120 h, time 5 day"}, "[10]": {"assay": "Cytotoxicity against human HepG2 cells assessed as cell viability at 80 uM incubated for 24 hrs by CCK8 assay relative to control", "assay_type": "toxicity, cell-based", "details": "HepG2 cells, read-out: Activity"}, "[11]": {"system": "HepG2", "assay": "Lipid lowering activity in human HepG2 cells assessed as reduction in FFA-induced triglyceride content at 20 uM preincubated for 1 hr followed by FFA treatment for 24 hrs", "assay_type": "functional, cell-based", "details": "time 25.0 hrs"}, "[12]": {"assay": "Half life in Sprague-Dawley rat at 20 mg/kg, po measured for 24 hrs by HPLC-ESI-MS analysis", "assay_type": "ADME, organism-based", "details": "in vivo"}, "[13]": {"assay": "Toxicity in Sprague-Dawley rat assessed as damage in colon at 20 mg/kg, po for 5 days", "assay_type": "organism-based", "details": "in vivo, 120 h, time 5 day"}, "[14]": {"system": "Mus musculus", "assay": "Hypoglycemic activity in HFD-fed STZ-induced diabetic C57BL/6J mouse model assessed as increase in hepatic glycogen synthesis at 20 mg/kg, po administered everyday for 3 weeks", "assay_type": "functional, organism-based"}, "[15]": {"assay": "Toxicity in Sprague-Dawley rat assessed as reduction in number of crypts in colon tissue at 20 mg/kg, po for 5 days", "assay_type": "organism-based", "details": "in vivo, 120 h, time 5 day"}, "[16]": {"system": "Mus musculus", "assay": "Inhibition of glucose production in HFD-fed STZ-induced diabetic C57BL/6J mouse model at 20 mg/kg, po administered everyday for 3 weeks", "assay_type": "functional, organism-based"}, "[17]": {"assay": "Tmax in Sprague-Dawley rat at 20 mg/kg, po measured for 24 hrs by HPLC-ESI-MS analysis", "assay_type": "ADME, organism-based", "details": "in vivo"}, "[18]": {"system": "HepG2", "assay": "Lipid lowering activity in human HepG2 cells assessed as inhibition of FFA-induced triglyceride content at 20 uM preincubated for 1 hr followed by FFA treatment for 24 hrs relative to control", "assay_type": "functional"}, "[19]": {"system": "Mus musculus", "assay": "Hypoglycemic activity in HFD-fed STZ-induced diabetic C57BL/6J mouse model assessed as reversal of diabetes-reduced MCCC1 level in liver at 20 mg/kg, po administered everyday for 3 weeks by Western blot analysis", "assay_type": "functional, organism-based"}, "[20]": {"assay": "Toxicity in Sprague-Dawley rat assessed as damage in heart at 20 mg/kg, po for 5 days", "assay_type": "organism-based", "details": "in vivo, 120 h, time 5 day"}, "[21]": {"system": "HepG2", "assay": "Cytotoxicity against human HepG2 cells assessed as cell survival at 40 uM by MTT assay", "assay_type": "toxicity, cell-based", "details": "hepg2, 40 µM"}, "[22]": {"assay": "Cytotoxicity against human HepG2 cells assessed as cell survival at 10 uM by MTT assay relative to control", "assay_type": "toxicity, cell-based", "details": "read-out: Survival"}, "[23]": {"assay": "Cmax in Sprague-Dawley rat at 20 mg/kg, po measured for 24 hrs by HPLC-ESI-MS analysis", "assay_type": "ADME, organism-based", "details": "in vivo"}, "[24]": {"assay": "Toxicity in Sprague-Dawley rat assessed as damage in liver at 20 mg/kg, po for 5 days", "assay_type": "organism-based", "details": "in vivo, 120 h, time 5 day"}, "[25]": {"system": "Mus musculus", "assay": "Hypoglycemic activity in HFD-fed STZ-induced diabetic C57BL/6J mouse model assessed as increase in GLUT4 level in liver at 20 mg/kg, po administered everyday for 3 weeks by Western blot analysis", "assay_type": "functional, organism-based"}, "[26]": {"system": "Mus musculus", "assay": "Hypoglycemic activity in HFD-fed STZ-induced diabetic C57BL/6J mouse model assessed as increase in AKT phosphorylation in liver at 20 mg/kg, po administered everyday for 3 weeks by Western blot analysis", "assay_type": "functional, organism-based"}, "[27]": {"assay": "Cytotoxicity against human HepG2 cells assessed as cell survival at 20 uM by MTT assay relative to control", "assay_type": "toxicity, cell-based", "details": "read-out: Survival"}, "[28]": {"assay": "Toxicity in Sprague-Dawley rat assessed as damage in lungs at 20 mg/kg, po for 5 days", "assay_type": "organism-based", "details": "in vivo, 120 h, time 5 day"}, "[29]": {"assay": "Toxicity in Sprague-Dawley rat assessed as damage in spleen at 20 mg/kg, po for 5 days", "assay_type": "organism-based", "details": "in vivo, 120 h, time 5 day"}, "[30]": {"assay": "MRT (0 to t) in Sprague-Dawley rat at 20 mg/kg, po measured for 24 hrs by HPLC-ESI-MS analysis", "assay_type": "ADME, organism-based", "details": "in vivo"}, "[31]": {"assay": "Volume of distribution in Sprague-Dawley rat at 20 mg/kg, po measured for 24 hrs by HPLC-ESI-MS analysis", "assay_type": "ADME, organism-based", "details": "in vivo"}},
  "note": "Active and inactive are the calls of the source. The rule behind the calls is not given here.",
  "data": [
    {"smiles": "C[C@H]1[C@H](C)CC[C@]2(C(=O)O)CC[C@]3(C)C(=CC[C@@H]4[C@@]5(C)C[C@@H](O)[C@H](O)C(C)(C)[C@@H]5CC[C@]43C)[C@H]12", "note": "[COROSOLIC ACID]", "values": [
      {"measurement": "CL/F", "setting": "[1]", "result": 23.1, "unit": "mL/min/kg"},
      {"measurement": "inhibition", "setting": "[2]", "result": "Active"},
      {"measurement": "Activity", "setting": "[3]", "result": "Active; Slight Decrease Was Observed"},
      {"measurement": "Activity", "setting": "[4]", "result": "Active"},
      {"measurement": "Activity", "setting": "[5]", "result": "inactive"},
      {"measurement": "bioavailability", "setting": "[6]", "result": "< 1", "unit": "%"},
      {"measurement": "AUC(0-t) at 24 h", "setting": "[7]", "result": 9200, "unit": "ng·h/mL"},
      {"measurement": "solubility", "setting": "[8]", "result": 0.55, "unit": "µM"},
      {"measurement": "Activity", "setting": "[9]", "result": "Non-toxic"},
      {"measurement": "viability at 24 h, 80 µM", "setting": "[10]", "result": 13.5, "unit": "%"},
      {"measurement": "Activity", "setting": "[11]", "result": "Active"},
      {"measurement": "half-life", "setting": "[12]", "result": 16.5, "unit": "h"},
      {"measurement": "Activity", "setting": "[13]", "result": "Non-toxic"},
      {"measurement": "Activity", "setting": "[14]", "result": "Active"},
      {"measurement": "Activity", "setting": "[15]", "result": "Non-toxic"},
      {"measurement": "inhibition", "setting": "[16]", "result": "inactive"},
      {"measurement": "Tmax", "setting": "[17]", "result": 0.5, "unit": "h"},
      {"measurement": "inhibition at 20 µM", "setting": "[18]", "result": 61.6, "unit": "%"},
      {"measurement": "Activity", "setting": "[19]", "result": "Active"},
      {"measurement": "Activity", "setting": "[20]", "result": "Non-toxic"},
      {"measurement": "Activity", "setting": "[21]", "result": "Toxic"},
      {"measurement": "viability at 10 µM", "setting": "[22]", "result": 96, "unit": "%"},
      {"measurement": "Cmax", "setting": "[23]", "result": 802, "unit": "ng/mL"},
      {"measurement": "Activity", "setting": "[24]", "result": "Non-toxic"},
      {"measurement": "Activity", "setting": "[25]", "result": "Active; Slight Increase Observed"},
      {"measurement": "Activity", "setting": "[26]", "result": "Active"},
      {"measurement": "viability at 20 µM", "setting": "[27]", "result": 101, "unit": "%"},
      {"measurement": "Activity", "setting": "[28]", "result": "Non-toxic"},
      {"measurement": "Activity", "setting": "[29]", "result": "Non-toxic"},
      {"measurement": "MRT last at 24 h", "setting": "[30]", "result": 10.2, "unit": "h"},
      {"measurement": "Vd", "setting": "[31]", "result": 33.04048, "unit": "L/kg"}
    ]}
  ]
}
